Laboratory results reported in US9561231B2 (AbbVie Inc., priority 2012, dated 2017).

Tests used:
[1] = target: T1, first (BD1: amino acids K57-E168) bromodomain of BRD4 (Homo sapiens, UniProt O60885); test: TR-FRET bromodomain binding assay, BRD4 BD1; conditions: TR-FRET assay protocol (A-G, compound concentration range); Ki calculated from IC50, probe Kd and probe concentration; read-out: TR-FRET Binding Ki: BRD4 (BDI_K57-E168)
T1 construct: His-tagged first (BD1: amino acids K57-E168)
Summary of the method: (§1)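 Values are Ki: IC50s from TR-FRET competition with an Alexa647-labeled BET-inhibitor probe were converted using probe Kd and probe concentration. Purified His-tagged bromodomain; pH 6.0 sodium phosphate buffer.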

[2] = target: T2, second (BD2: amino acids E352-E168) bromodomain of BRD4 (Homo sapiens, UniProt O60885); test: TR-FRET bromodomain binding assay, BRD4 BD2; conditions: TR-FRET assay protocol (A-G, compound concentration range); Ki calculated from IC50, probe Kd and probe concentration; read-out: TR-FRET Binding Ki: BRD4 (BDII_E352-M457)
T2 construct: protocol
Summary of the method: as §1

[3] = system: breast cancer cell line MX-1; test: MX-1 cell line proliferation assay (3-day); format: cell-based; conditions: Homo sapiens, MX1; MX-1 cells, 72 h incubation, Cell Titer Glo; read-out: Cellular proliferation: EC50
Method: The impact of compounds of the Examples on cancer cell proliferation was determined using the breast cancer cell line MX-1 (ATCC) in a 3-day proliferation assay. MX-1 cells were maintained in RPMI supplemented with 10% FBS at 37° C. and an atmosphere of 5% CO2. For compound testing, MX-1 cells were plated in 96-well black bottom plates at a density of 5000 cells/well in 90 μL of culture media and incubated at 37° overnight to allow cell adhesion and spreading. Compound dilution series were prepared in DMSO via a 3-fold serial dilution from 3 mM to 0.1 μM. The DMSO dilution series were then diluted 1:100 in phosphate buffered saline, and 10 μL of the resulted solution were added to the appropriate wells of the MX-1 cell plate. The final compound concentrations in the wells were 3, 1, 0.3, 0.1, 0.03, 0.01, 0.003, 0.001, 0.0003 and 0.0001 μM.
Luminescence readings from the Cell Titer Glo assay were normalized to the DMSO treated cells and analyzed using the GraphPad Prism software with sigmoidal curve fitting to obtain EC50s.

SMILES	Ki [1] [nM]	Ki [2] [nM]	EC50 [3] [nM]
Cn1cc(-c2cc(NS(C)(=O)=O)ccc2Oc2ccc(F)cc2F)c(C(F)(F)F)cc1=O [Example 5, N-{4-(2,4-difluorophenoxy)-3-[1-methyl-6-oxo-4-(trifluoromethyl)-1,6-dihydropyridin-3-yl]phenyl}methanesulfonamide]	922	688	> 3000
Cn1nc(-c2cc(N)ccc2Oc2ccccc2)ccc1=O [Example 10, 6-(5-amino-2-phenoxyphenyl)-2-methylpyridazin-3(2H)-one]	2440	1500	3700
Cc1ccc(S(=O)(=O)Nc2ccc(Oc3ccccc3)c(-c3ccc(=O)n(C)n3)c2)cc1 [Example 11, 4-methyl-N-[3-(1-methyl-6-oxo-1,6-dihydropyridazin-3-yl)-4-phenoxyphenyl]benzenesulfonamide]	4040	4370	9460
CC(=O)Nc1ccc(Oc2ccccc2)c(-c2ccc(=O)n(C)n2)c1 [Example 12, N-[3-(1-methyl-6-oxo-1,6-dihydropyridazin-3-yl)-4-phenoxyphenyl]acetamide]	575	696	2660
Cn1nc(-c2cc(CNC(=O)C(F)(F)F)ccc2Oc2ccccc2)ccc1=O [Example 17, 2,2,2-trifluoro-N-[3-(1-methyl-6-oxo-1,6-dihydropyridazin-3-yl)-4-phenoxybenzyl]acetamide]	513	4520	2630
COc1cc(=O)n(C)nc1-c1cc(N(C)S(C)(=O)=O)ccc1Oc1ccccc1 [Example 23, N-[3-(4-methoxy-1-methyl-6-oxo-1,6-dihydropyridazin-3-yl)-4-phenoxyphenyl]-N-methylmethanesulfonamide]	480	214	3800
CCCS(=O)(=O)Nc1ccc(Oc2ccccc2)c(-c2nn(C)c(=O)cc2OC)c1 [Example 24, N-[3-(4-methoxy-1-methyl-6-oxo-1,6-dihydropyridazin-3-yl)-4-phenoxyphenyl]propane-1-sulfonamide]	326	108	1010
COc1cc(=O)n(C)nc1-c1cc(NS(=O)(=O)CC(F)(F)F)ccc1Oc1ccccc1 [Example 25, 2,2,2-trifluoro-N-[3-(4-methoxy-1-methyl-6-oxo-1,6-dihydropyridazin-3-yl)-4-phenoxyphenyl]ethanesulfonamide]	97.4	12.5	450
COc1cc(=O)n(C)nc1-c1cc(NS(=O)(=O)C2CCCC2)ccc1Oc1ccccc1 [Example 26, N-[3-(4-methoxy-1-methyl-6-oxo-1,6-dihydropyridazin-3-yl)-4-phenoxyphenyl]cyclopentanesulfonamide]	569	104	800
COc1cc(=O)n(C)nc1-c1cc(NS(=O)(=O)Cc2ccccc2)ccc1Oc1ccccc1 [Example 27, N-[3-(4-methoxy-1-methyl-6-oxo-1,6-dihydropyridazin-3-yl)-4-phenoxyphenyl]-1-phenylmethanesulfonamide]	296	78.9	720
COc1cc(=O)n(C)nc1-c1cc(NS(=O)(=O)CCC(F)(F)F)ccc1Oc1ccccc1 [Example 28, 3,3,3-trifluoro-N-[3-(4-methoxy-1-methyl-6-oxo-1,6-dihydropyridazin-3-yl)-4-phenoxyphenyl]propane-1-sulfonamide]	710	227	7620
COc1cc(=O)n(C)nc1-c1ccccc1Oc1ccc(F)cc1 [Example 33, 6-[2-(4-fluorophenoxy)phenyl]-5-methoxy-2-methylpyridazin-3(2H)-one]	3000	2290	4100
COc1cc(=O)n(C)nc1-c1ccccc1Oc1ccc(Cl)cc1 [Example 37, 6-[2-(4-chlorophenoxy)phenyl]-5-methoxy-2-methylpyridazin-3(2H)-one]	1730	1790	10000

The remaining lines, values ahead:

Ki [1] [nM]	Ki [2] [nM]	EC50 [3] [nM]	SMILES
2550	1220	11500	Cn1nc(-c2cc(C(N)=O)ccc2Oc2ccccc2)ccc1=O [Example 14, 3-(1-methyl-6-oxo-1,6-dihydropyridazin-3-yl)-4-phenoxybenzamide]
1110	8420	5900	CC(=O)NCc1ccc(Oc2ccccc2)c(-c2ccc(=O)n(C)n2)c1 [Example 16, N-[3-(1-methyl-6-oxo-1,6-dihydropyridazin-3-yl)-4-phenoxybenzyl]acetamide]
2700	524	7160	COc1cc(=O)n(C)nc1-c1cc(N)ccc1Oc1ccccc1 [Example 20, 6-(5-amino-2-phenoxyphenyl)-5-methoxy-2-methylpyridazin-3(2H)-one]
147	103	1340	COc1cc(=O)n(C)nc1-c1cc(NC(C)=O)ccc1Oc1ccccc1 [Example 21, N-[3-(4-methoxy-1-methyl-6-oxo-1,6-dihydropyridazin-3-yl)-4-phenoxyphenyl]acetamide]
1370	950	4530	CCOC(=O)Nc1ccc(Oc2ccccc2)c(-c2nn(C)c(=O)cc2OC)c1 [Example 29, ethyl[3-(4-methoxy-1-methyl-6-oxo-1,6-dihydropyridazin-3-yl)-4-phenoxyphenyl]carbamate]
> 2380	1330	12900	CCNC(=O)Nc1ccc(Oc2ccccc2)c(-c2nn(C)c(=O)cc2OC)c1 [Example 30, 1-ethyl-3-[3-(4-methoxy-1-methyl-6-oxo-1,6-dihydropyridazin-3-yl)-4-phenoxyphenyl]urea]
6680	748	7110	CCOC(=O)C1CCN(c2cc(=O)n(C)nc2-c2ccccc2Oc2ccccc2)C1 (stereo not drawn) [Example 49, ethyl 1-[1-methyl-6-oxo-3-(2-phenoxyphenyl)-1,6-dihydropyridazin-4-yl]pyrrolidine-3-carboxylate]
2100	2420	9520	COC(=O)CNc1cc(=O)n(C)nc1-c1ccccc1Oc1ccccc1 [Example 50, methyl N-[1-methyl-6-oxo-3-(2-phenoxyphenyl)-1,6-dihydropyridazin-4-yl]glycinate]
4120	356	4240	Cn1nc(-c2ccccc2Oc2ccccc2)c(-c2ccnc(F)c2)cc1=O [Example 54, 5-(2-fluoropyridin-4-yl)-2-methyl-6-(2-phenoxyphenyl)pyridazin-3(2H)-one]
6890	778	13700	Cn1nc(-c2ccccc2Oc2ccccc2)c(-c2cc[nH]c(=O)c2)cc1=O [Example 55, 2-methyl-5-(2-oxo-1,2-dihydropyridin-4-yl)-6-(2-phenoxyphenyl)pyridazin-3(2H)-one]
2900	341	10400	Cn1ccc(-c2cc(=O)n(C)nc2-c2ccccc2Oc2ccccc2)cc1=O [Example 56, 2-methyl-5-(1-methyl-2-oxo-1,2-dihydropyridin-4-yl)-6-(2-phenoxyphenyl)pyridazin-3(2H)-one]
598	250	1860	COc1cc(-c2cc(=O)n(C)nc2-c2ccccc2Oc2ccccc2)ccn1 [Example 57, 5-(2-methoxypyridin-4-yl)-2-methyl-6-(2-phenoxyphenyl)pyridazin-3(2H)-one]
